In article PMC5218480 (PLoS ONE, 2017):

System: MV-4-11 cells
Assay: Gene expression microarray analysis (Affymetrix PrimeView) and GSEA
Format: cell-based, human
Design: RFU PODN (11730768_x_at) / Fold change /veh PODN (11730768_x_at) / RFU LINC00158 (11744669_a_at) / Fold change /veh LINC00158 (11744669_a_at) / RFU DUSP10 (11751237_a_at) / Fold change /veh DUSP10 (11751237_a_at) / RFU ID3 (11757404_x_at) / Fold change /veh ID3 (11757404_x_at) / RFU PLEKHG5 (11737974_s_at) / Fold change /veh PLEKHG5 (11737974_s_at) / RFU LRRC4B (11730491_at) / Fold change /veh LRRC4B (11730491_at) / RFU GIMAP4 (11747438_a_at) / Fold change /veh GIMAP4 (11747438_a_at) / RFU KRT8 (11758183_x_at) / Fold change /veh KRT8 (11758183_x_at) / RFU CNN1 (11734310_a_at) / Fold change /veh CNN1 (11734310_a_at) / RFU VPS37D (11726825_at) / Fold change /veh VPS37D (11726825_at) / RFU C10orf10 (11716522_x_at) / Fold change /veh C10orf10 (11716522_x_at) / RFU KIR2DL2 /// KIR2DL4 /// KIR2DL5A /// KIR2DL5B /// KIR2DS1 /// KIR2DS2 /// KIR2DS3 /// KIR2DS4 /// KIR3DL3 /// KIR3DL3 /// KIR3DS1 (11738374_at) / Fold change /veh KIR2DL2 /// KIR2DL4 /// KIR2DL5A /// KIR2DL5B /// KIR2DS1 /// KIR2DS2 /// KIR2DS3 /// KIR2DS4 /// KIR3DL3 /// KIR3DL3 /// KIR3DS1 (11738374_at) / RFU C1QL1 (11718748_at) / Fold change /veh C1QL1 (11718748_at) / RFU TMPRSS4 (11747572_a_at) / Fold change /veh TMPRSS4 (11747572_a_at) / RFU HAMP (11756126_x_at) / Fold change /veh HAMP (11756126_x_at) / RFU RNFT2 (11725882_a_at) / Fold change /veh RNFT2 (11725882_a_at) / RFU NR4A2 (11747474_a_at) / Fold change /veh NR4A2 (11747474_a_at) / RFU ABCC12 (11746883_a_at) / Fold change /veh ABCC12 (11746883_a_at) / RFU TMEM136 (11760407_x_at) / Fold change /veh TMEM136 (11760407_x_at) / RFU CLDN22 /// WWC2 (11732394_at) / Fold change /veh CLDN22 /// WWC2 (11732394_at) / RFU HLA-DPB1 (11760878_x_at) / Fold change /veh HLA-DPB1 (11760878_x_at) / RFU SPINT1 (11716480_a_at) / Fold change /veh SPINT1 (11716480_a_at) / RFU GAP43 (11754022_s_at) / Fold change /veh GAP43 (11754022_s_at) / RFU A4GNT (11735810_at) / Fold change /veh A4GNT (11735810_at) / RFU PRB3 (11715151_x_at) / Fold change /veh PRB3 (11715151_x_at) / RFU TUBB4B (11761932_at) / Fold change /veh TUBB4B (11761932_at) / RFU CAPN14 (11732068_a_at) / Fold change /veh CAPN14 (11732068_a_at) / RFU TMCC2 (11721928_a_at) / Fold change /veh TMCC2 (11721928_a_at) / RFU IRGQ (11745062_a_at) / Fold change /veh IRGQ (11745062_a_at) / RFU FAM174B (11720279_a_at) / Fold change /veh FAM174B (11720279_a_at) / RFU TMPRSS4 (11748680_a_at) / Fold change /veh TMPRSS4 (11748680_a_at) / RFU FAM212B (11763350_a_at) / Fold change /veh FAM212B (11763350_a_at) / RFU PLEKHG5 (11743358_a_at) / Fold change /veh PLEKHG5 (11743358_a_at) / RFU ZSCAN30 (11745921_a_at) / Fold change /veh ZSCAN30 (11745921_a_at) / RFU CMKLR1 (11741424_a_at) / Fold change /veh CMKLR1 (11741424_a_at) / RFU LOC101060620 /// MAPK8IP1 (11723275_at) / Fold change /veh LOC101060620 /// MAPK8IP1 (11723275_at) / RFU SPTSSB (11747773_x_at) / Fold change /veh SPTSSB (11747773_x_at) / RFU PRSS12 (11739890_at) / Fold change /veh PRSS12 (11739890_at) / RFU BIN1 (11741810_x_at) / Fold change /veh BIN1 (11741810_x_at) / RFU WNT11 (11732464_a_at) / Fold change /veh WNT11 (11732464_a_at) / RFU C10orf10 (11716521_a_at) / Fold change /veh C10orf10 (11716521_a_at) / RFU C5orf56 (11738089_at) / Fold change /veh C5orf56 (11738089_at) / RFU CYB561 (11721691_x_at) / Fold change /veh CYB561 (11721691_x_at) / RFU ANKRD19P (11752326_a_at) / Fold change /veh ANKRD19P (11752326_a_at) / RFU OR2T12 /// OR2T33 /// OR2T8 (11738714_s_at) / Fold change /veh OR2T12 /// OR2T33 /// OR2T8 (11738714_s_at) / RFU VCAN (11748164_a_at) / Fold change /veh VCAN (11748164_a_at) / RFU JSRP1 (11732532_at) / Fold change /veh JSRP1 (11732532_at) / RFU KRTAP10-11 (11738290_x_at) / Fold change /veh KRTAP10-11 (11738290_x_at) / RFU MYO3A (11730013_a_at) / Fold change /veh MYO3A (11730013_a_at) / RFU EBF3 (11725865_a_at) / Fold change /veh EBF3 (11725865_a_at) / RFU CAMK2N1 (11719241_x_at) / Fold change /veh CAMK2N1 (11719241_x_at) / RFU C5orf56 (11738088_a_at) / Fold change /veh C5orf56 (11738088_a_at) / RFU OLFML3 (11715873_a_at) / Fold change /veh OLFML3 (11715873_a_at) / RFU LOC100653217 /// NTM (11731650_a_at) / Fold change /veh LOC100653217 /// NTM (11731650_a_at) / RFU MAPK11 (11762145_a_at) / Fold change /veh MAPK11 (11762145_a_at) / RFU FIZ1 (11724087_x_at) / Fold change /veh FIZ1 (11724087_x_at) / RFU OASL (11726364_x_at) / Fold change /veh OASL (11726364_x_at) / RFU SOX15 (11748057_x_at) / Fold change /veh SOX15 (11748057_x_at) / RFU CD79A (11719716_a_at) / Fold change /veh CD79A (11719716_a_at) / RFU HIST1H1D (11736915_at) / Fold change /veh HIST1H1D (11736915_at) / RFU CASKIN2 (11723855_a_at) / Fold change /veh CASKIN2 (11723855_a_at) / RFU LOC730098 (11760151_x_at) / Fold change /veh LOC730098 (11760151_x_at) / RFU OR4N2 (11742367_at) / Fold change /veh OR4N2 (11742367_at) / RFU PRRT2 (11749266_a_at) / Fold change /veh PRRT2 (11749266_a_at) / RFU SNX32 (11753110_a_at) / Fold change /veh SNX32 (11753110_a_at) / RFU CDHR5 (11726645_a_at) / Fold change /veh CDHR5 (11726645_a_at) / RFU RCAN1 (11760418_a_at) / Fold change /veh RCAN1 (11760418_a_at) / RFU FAM167A (11723789_a_at) / Fold change /veh FAM167A (11723789_a_at) / RFU FAM26E (11764081_at) / Fold change /veh FAM26E (11764081_at) / RFU ISYNA1 (11749810_s_at) / Fold change /veh ISYNA1 (11749810_s_at) / RFU ACY1 (11761880_at) / Fold change /veh ACY1 (11761880_at) / RFU 11764098_at / Fold change /veh 11764098_at / RFU SAMD14 (11745864_x_at) / Fold change /veh SAMD14 (11745864_x_at) / RFU NPB (11741838_a_at) / Fold change /veh NPB (11741838_a_at) / RFU TMPRSS6 (11731388_a_at) / Fold change /veh TMPRSS6 (11731388_a_at) / RFU KRTAP10-2 (11738614_at) / Fold change /veh KRTAP10-2 (11738614_at) / RFU ARHGAP8 /// PRR5-ARHGAP8 (11727945_x_at) / Fold change /veh ARHGAP8 /// PRR5-ARHGAP8 (11727945_x_at) / RFU KRTAP5-7 /// NADSYN1 (11734609_at) / Fold change /veh KRTAP5-7 /// NADSYN1 (11734609_at) / RFU RASL12 (11751679_a_at) / Fold change /veh RASL12 (11751679_a_at) / RFU CDKN2B (11736163_a_at) / Fold change /veh CDKN2B (11736163_a_at) / RFU PRF1 (11729649_at) / Fold change /veh PRF1 (11729649_at) / RFU, ZNF638 /// ZNF638-IT1 / Fold change vs veh, ZNF638 /// ZNF638-IT1 / RFU, PANK3 / Fold change vs veh, PANK3 / RFU, SH3YL1 / Fold change vs veh, SH3YL1 / RFU, ZEB2 / Fold change vs veh, ZEB2 / RFU, NRIP1 / Fold change vs veh, NRIP1 / RFU, PTTG1IP / Fold change vs veh, PTTG1IP / RFU, CAPN2 / Fold change vs veh, CAPN2 / RFU, MED14 / Fold change vs veh, MED14 / RFU, SNORA58 / Fold change vs veh, SNORA58 / RFU, C1orf63 / Fold change vs veh, C1orf63 / RFU, LRRFIP1 / Fold change vs veh, LRRFIP1 / RFU, NDUFAF7 / Fold change vs veh, NDUFAF7 / RFU, SLC12A2 / Fold change vs veh, SLC12A2 / RFU, IBTK / Fold change vs veh, IBTK / RFU, ESF1 / Fold change vs veh, ESF1 / Fold change vs veh, TMEM50B / RFU, TAOK1 / Fold change vs veh, TAOK1 / RFU, ACBD3 / Fold change vs veh, ACBD3 / RFU, TMA16 / Fold change vs veh, TMA16 / RFU, RWDD3 / Fold change vs veh, RWDD3 / RFU, BCAT1 / Fold change vs veh, BCAT1 / RFU, EDEM3 / Fold change vs veh, EDEM3 / RFU, TMEM33 / Fold change vs veh, TMEM33 / RFU, WDR75 / Fold change vs veh, WDR75 / RFU, AHCTF1 / Fold change vs veh, AHCTF1 / RFU, TFRC / Fold change vs veh, TFRC / RFU, ZDHHC17 / Fold change vs veh, ZDHHC17 / RFU, NOM1 / Fold change vs veh, NOM1 / RFU, ARL8B / Fold change vs veh, ARL8B / RFU, ZBTB11 / Fold change vs veh, ZBTB11 / RFU, TAMM41 / Fold change vs veh, TAMM41 / RFU, KIAA1704 /// LOC100996395 / Fold change vs veh, KIAA1704 /// LOC100996395 / RFU, ING1 / Fold change vs veh, ING1 / RFU, TRMT61B / Fold change vs veh, TRMT61B / RFU, FUBP3 / Fold change vs veh, FUBP3 / RFU, TP53 / Fold change vs veh, TP53 / RFU, TNKS2 / Fold change vs veh, TNKS2 / RFU, ZFP14 / Fold change vs veh, ZFP14 / RFU, ACTR2 / Fold change vs veh, ACTR2 / RFU, PPP3R1 / Fold change vs veh, PPP3R1 / RFU, PIK3R1 / Fold change vs veh, PIK3R1 / RFU, HNRNPA1 / Fold change vs veh, HNRNPA1 / RFU, RNF170 / Fold change vs veh, RNF170 / RFU, ZNF28 / Fold change vs veh, ZNF28 / RFU, RNGTT / Fold change vs veh, RNGTT / RFU, OGT / Fold change vs veh, OGT / RFU, BRD1 / Fold change vs veh, BRD1 / RFU, MARS / Fold change vs veh, MARS / RFU, ZNF655 / Fold change vs veh, ZNF655 / RFU, FAHD1 / Fold change vs veh, FAHD1 / RFU, BDP1 / Fold change vs veh, BDP1 / RFU, LRRCC1 / Fold change vs veh, LRRCC1 / RFU, ARID1A / Fold change vs veh, ARID1A / RFU, ZNF146 / Fold change vs veh, ZNF146 / RFU, ZNF330 / Fold change vs veh, ZNF330 / RFU, GPN3 / Fold change vs veh, GPN3 / RFU, C9orf123 / Fold change vs veh, C9orf123 / RFU, N4BP2L2 / Fold change vs veh, N4BP2L2 / RFU, ARFIP1 / Fold change vs veh, ARFIP1 / RFU, FAM179B / Fold change vs veh, FAM179B / RFU, BCL10 / Fold change vs veh, BCL10 / RFU, UHRF1BP1L / Fold change vs veh, UHRF1BP1L / RFU, BET1 / Fold change vs veh, BET1 / RFU, CNOT2 / Fold change vs veh, CNOT2 / RFU, ZNF268 / Fold change vs veh, ZNF268 / Fold change vs veh, ZNF507 / RFU, DGCR2 / Fold change vs veh, DGCR2 / RFU, WDSUB1 / Fold change vs veh, WDSUB1 / Fold change vs veh, HSP90B1 /// MIR3652 / RFU, ADSS / Fold change vs veh, ADSS / RFU, GK / Fold change vs veh, GK / RFU, ZNF148 / Fold change vs veh, ZNF148 / RFU, TAF9 / Fold change vs veh, TAF9 / RFU, SLC1A5 / Fold change vs veh, SLC1A5 / RFU, SLMO2 / Fold change vs veh, SLMO2 / RFU, ABCC4 / Fold change vs veh, ABCC4 / RFU, LOC101060439 /// RAP1B / Fold change vs veh, LOC101060439 /// RAP1B / RFU, RFX7 / Fold change vs veh, RFX7 / RFU, GTPBP10 / Fold change vs veh, GTPBP10 / RFU, CNEP1R1 / Fold change vs veh, CNEP1R1 / RFU, BIVM-ERCC5 /// ERCC5 / Fold change vs veh, BIVM-ERCC5 /// ERCC5 / RFU, ILF3 / Fold change vs veh, ILF3 / RFU 11762660_at / Fold change /veh 11762660_at / RFU VCAN (11757783_s_at) / Fold change /veh VCAN (11757783_s_at) / RFU DDX43 (11728927_at) / Fold change /veh DDX43 (11728927_at) / RFU KRT8 (11758188_x_at) / Fold change /veh KRT8 (11758188_x_at) / RFU NKD1 (11759106_at) / Fold change /veh NKD1 (11759106_at) / RFU SRD5A1 (11742802_a_at) / Fold change /veh SRD5A1 (11742802_a_at) / RFU TPSAB1 /// TPSB2 (11721975_s_at) / Fold change /veh TPSAB1 /// TPSB2 (11721975_s_at) / RFU GSTM3 (11746129_a_at) / Fold change /veh GSTM3 (11746129_a_at) / RFU IL23R (11737362_x_at) / Fold change /veh IL23R (11737362_x_at) / RFU TMEM51 (11727254_a_at) / Fold change /veh TMEM51 (11727254_a_at) / RFU PIWIL2 (11732686_x_at) / Fold change /veh PIWIL2 (11732686_x_at) / RFU ORM1 (11744905_x_at) / Fold change /veh ORM1 (11744905_x_at) / RFU CCDC152 (11743942_at) / Fold change /veh CCDC152 (11743942_at) / RFU ECM1 (11717891_a_at) / Fold change /veh ECM1 (11717891_a_at) / RFU IL23R (11748794_a_at) / Fold change /veh IL23R (11748794_a_at) / RFU TNFAIP8L3 (11732012_x_at) / Fold change /veh TNFAIP8L3 (11732012_x_at) / RFU MBOAT4 (11741988_at) / Fold change /veh MBOAT4 (11741988_at) / RFU 11764193_at / Fold change /veh 11764193_at / RFU TMEM53 (11763286_at) / Fold change /veh TMEM53 (11763286_at) / RFU MAGEB2 (11727129_at) / Fold change /veh MAGEB2 (11727129_at) / RFU TMEM200A (11744735_a_at) / Fold change /veh TMEM200A (11744735_a_at) / RFU CCDC152 (11751479_a_at) / Fold change /veh CCDC152 (11751479_a_at) / RFU FAM211A (11726209_a_at) / Fold change /veh FAM211A (11726209_a_at) / RFU RGS16 (11746705_a_at) / Fold change /veh RGS16 (11746705_a_at) / RFU VCAN (11755009_s_at) / Fold change /veh VCAN (11755009_s_at) / RFU RHOB (11743442_s_at) / Fold change /veh RHOB (11743442_s_at) / RFU RGS16 (11720943_a_at) / Fold change /veh RGS16 (11720943_a_at) / RFU RGS16 (11720944_at) / Fold change /veh RGS16 (11720944_at) / RFU, VPS4B / Fold change vs veh, VPS4B / RFU, CREB1 / Fold change vs veh, CREB1 / RFU, DNAJC13 / Fold change vs veh, DNAJC13 / RFU, GNAQ / Fold change vs veh, GNAQ / RFU, CDK5R1 / Fold change vs veh, CDK5R1 / RFU, ZRANB3 / Fold change vs veh, ZRANB3 / RFU, CUL4A / Fold change vs veh, CUL4A / RFU, CCNY / Fold change vs veh, CCNY / RFU, UFL1 / Fold change vs veh, UFL1 / RFU, COG3 / Fold change vs veh, COG3 / RFU, DIAPH2 / Fold change vs veh, DIAPH2 / RFU, SKA2 / Fold change vs veh, SKA2 / RFU, AFF3 / Fold change vs veh, AFF3 / RFU, LMF1 / Fold change vs veh, LMF1 / RFU, IPO11 / Fold change vs veh, IPO11 / RFU, DFFB / Fold change vs veh, DFFB / RFU, FOXP1 / Fold change vs veh, FOXP1 / RFU, CARD8 / Fold change vs veh, CARD8 / RFU, STRN3 / Fold change vs veh, STRN3 / RFU, ADK / Fold change vs veh, ADK / RFU, RASSF2 / Fold change vs veh, RASSF2 / RFU, WIPF1 / Fold change vs veh, WIPF1 / RFU, LARP1B / Fold change vs veh, LARP1B / RFU, RASA1 / Fold change vs veh, RASA1 / RFU, RB1 / Fold change vs veh, RB1 / RFU, PPFIA1 / Fold change vs veh, PPFIA1 / RFU, MAT2A / Fold change vs veh, MAT2A / RFU, CCT5 / Fold change vs veh, CCT5 / RFU, WDR92 / Fold change vs veh, WDR92 / RFU, CUX1 / Fold change vs veh, CUX1 / RFU, TTC7A / Fold change vs veh, TTC7A / RFU, TMEM135 / Fold change vs veh, TMEM135 / RFU, DEPTOR / Fold change vs veh, DEPTOR / RFU, CPM / Fold change vs veh, CPM / RFU, DNAJB6 / Fold change vs veh, DNAJB6 / RFU, CACNA2D3 / Fold change vs veh, CACNA2D3 / RFU, DTX4 / Fold change vs veh, DTX4 / RFU, TFCP2 / Fold change vs veh, TFCP2 / RFU, GMCL1 /// GMCL1P1 / Fold change vs veh, GMCL1 /// GMCL1P1 / RFU, AEBP2 / Fold change vs veh, AEBP2 / RFU, SNHG1 /// SNORD22 /// SNORD25 /// SNORD26 /// SNORD27 /// SNORD28 /// SNORD29 /// SNORD31 / Fold change vs veh, SNHG1 /// SNORD22 /// SNORD25 /// SNORD26 /// SNORD27 /// SNORD28 /// SNORD29 /// SNORD31 / Fold change (Aza/veh), C12orf56 (ProbeSet 11735607_a_at) / Fold change (ACY-1035/veh), C12orf56 (ProbeSet 11735607_a_at) / Fold change (Aza/veh), FGFR1OP (ProbeSet 11751329_s_at) / Fold change (ACY-1035/veh), FGFR1OP (ProbeSet 11751329_s_at) / Fold change (Aza/veh), VPS36 (ProbeSet 11739960_a_at) / Fold change (ACY-1035/veh), VPS36 (ProbeSet 11739960_a_at) / RFU SYPL1 (11715823_x_at) / Fold change /veh SYPL1 (11715823_x_at) / RFU IGFBP7 (11715501_s_at) / Fold change /veh IGFBP7 (11715501_s_at) / RFU REEP3 (11722064_at) / Fold change /veh REEP3 (11722064_at) / RFU IGLL1 (11728026_x_at) / Fold change /veh IGLL1 (11728026_x_at): dose or concentration left out as unconfirmed
Details: MV-4-11 cells, 48 hours

## Nc1ncn([C@@H]2O[C@H](CO)[C@@H](O)[C@H]2O)c(=O)n1 [azacitidine]
  Fold change /veh SYPL1 (11715823_x_at): 0.82
